The record followed here is patent US20250326753A1, “DUAL CXCR4-BTK INHIBITORS” (X4 Pharmaceuticals, Inc., priority 2022, published 2025).

Bounds are passed on as bounds.

What all share (assay type): biochemical
Assay [1] has as its target T1, RIPK5 (Homo sapiens, UniProt Q6XUX3).
T1 construct: purchased Reaction Biology Europe GmbH
T1 sequence (Q6XUX3 1-929): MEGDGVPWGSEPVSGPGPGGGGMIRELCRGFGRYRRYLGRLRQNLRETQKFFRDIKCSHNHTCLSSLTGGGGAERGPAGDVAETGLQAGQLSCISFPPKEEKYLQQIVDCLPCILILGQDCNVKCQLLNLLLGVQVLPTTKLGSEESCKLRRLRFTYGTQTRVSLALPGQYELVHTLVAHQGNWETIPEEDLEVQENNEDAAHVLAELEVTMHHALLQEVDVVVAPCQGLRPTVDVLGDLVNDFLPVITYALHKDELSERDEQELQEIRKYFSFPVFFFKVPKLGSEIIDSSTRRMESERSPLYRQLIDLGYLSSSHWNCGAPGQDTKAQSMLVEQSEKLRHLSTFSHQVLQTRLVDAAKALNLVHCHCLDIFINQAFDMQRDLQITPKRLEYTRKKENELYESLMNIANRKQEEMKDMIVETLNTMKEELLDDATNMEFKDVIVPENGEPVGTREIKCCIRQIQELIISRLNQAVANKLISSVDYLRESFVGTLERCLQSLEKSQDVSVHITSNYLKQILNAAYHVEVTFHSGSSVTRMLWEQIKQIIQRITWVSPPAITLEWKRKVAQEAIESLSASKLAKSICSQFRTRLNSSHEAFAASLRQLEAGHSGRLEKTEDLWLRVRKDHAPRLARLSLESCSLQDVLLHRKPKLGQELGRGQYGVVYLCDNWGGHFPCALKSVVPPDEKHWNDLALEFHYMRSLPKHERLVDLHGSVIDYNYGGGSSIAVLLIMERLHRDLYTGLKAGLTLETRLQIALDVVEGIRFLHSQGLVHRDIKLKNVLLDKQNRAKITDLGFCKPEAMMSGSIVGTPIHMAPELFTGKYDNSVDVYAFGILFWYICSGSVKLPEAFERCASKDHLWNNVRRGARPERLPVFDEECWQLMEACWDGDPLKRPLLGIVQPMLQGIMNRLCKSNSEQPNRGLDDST
As to the kind of experiment: PanQinase kinase panel: RIPK5. The conditions noted are these: read-out: INHIBITORY EFFECT @ 1 uM: RIPK5. The procedure: (§1) Screening procedures were performed in accordance with the company's on-line protocol [accessed on-line Mar.
(§2) For each kinase, the median value of the cpm of three wells was defined as “low control” (n=3). This value reflects unspecific binding of radioactivity to the plate in the absence of a protein kinase but in the presence of the substrate. Additionally, for each kinase the median value of the cpm of three other wells was taken as the “high control,” i.e. full activity in the absence of any inhibitor (n=3). The difference between high and low control of each enzyme was taken as 100% activity.
(§3) As part of the data evaluation the low control of each kinase was subtracted from the high control value as well as from their corresponding “compound values”. The residual activity (in %) for each compound well was calculated by using the following formula: Res. Activity (%)=100×[(signal of compound−low control)/(high control−low control)].

Assay [2] deals with T2, FRK (Homo sapiens, UniProt P42685).
T2 construct: purchased Reaction Biology Europe GmbH
T2 sequence (P42685 whole entry): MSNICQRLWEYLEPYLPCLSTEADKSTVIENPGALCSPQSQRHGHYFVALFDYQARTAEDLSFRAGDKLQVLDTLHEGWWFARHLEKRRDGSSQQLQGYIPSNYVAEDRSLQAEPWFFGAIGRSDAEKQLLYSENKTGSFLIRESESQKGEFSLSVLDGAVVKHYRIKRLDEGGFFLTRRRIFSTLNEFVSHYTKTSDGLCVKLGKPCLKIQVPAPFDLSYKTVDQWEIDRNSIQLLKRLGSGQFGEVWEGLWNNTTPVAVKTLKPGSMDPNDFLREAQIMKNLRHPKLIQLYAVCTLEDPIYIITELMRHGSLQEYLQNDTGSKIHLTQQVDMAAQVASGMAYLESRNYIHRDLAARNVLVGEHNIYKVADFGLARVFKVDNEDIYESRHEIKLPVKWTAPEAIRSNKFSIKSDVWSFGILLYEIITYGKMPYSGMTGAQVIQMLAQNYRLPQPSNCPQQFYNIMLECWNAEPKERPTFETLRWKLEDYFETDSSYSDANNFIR
As to the kind of experiment: PanQinase kinase panel: FRK. The conditions noted are these: read-out: INHIBITORY EFFECT @ 1 uM: FRK. The procedure:
as §1, §2, §3

Assay [3] concerns the target T3, TIE2 (Homo sapiens, UniProt Q02763).
T3 construct: purchased Reaction Biology Europe GmbH
As to the kind of experiment: PanQinase kinase panel: TIE2. The conditions noted are these: read-out: INHIBITORY EFFECT @ 1 uM: TIE2. The procedure:
as §1, §2, §3

Assay [4] has as its target T4, MST1 (Homo sapiens, UniProt Q13043).
T4 construct: purchased Reaction Biology Europe GmbH
T4 sequence (Q13043 1-487): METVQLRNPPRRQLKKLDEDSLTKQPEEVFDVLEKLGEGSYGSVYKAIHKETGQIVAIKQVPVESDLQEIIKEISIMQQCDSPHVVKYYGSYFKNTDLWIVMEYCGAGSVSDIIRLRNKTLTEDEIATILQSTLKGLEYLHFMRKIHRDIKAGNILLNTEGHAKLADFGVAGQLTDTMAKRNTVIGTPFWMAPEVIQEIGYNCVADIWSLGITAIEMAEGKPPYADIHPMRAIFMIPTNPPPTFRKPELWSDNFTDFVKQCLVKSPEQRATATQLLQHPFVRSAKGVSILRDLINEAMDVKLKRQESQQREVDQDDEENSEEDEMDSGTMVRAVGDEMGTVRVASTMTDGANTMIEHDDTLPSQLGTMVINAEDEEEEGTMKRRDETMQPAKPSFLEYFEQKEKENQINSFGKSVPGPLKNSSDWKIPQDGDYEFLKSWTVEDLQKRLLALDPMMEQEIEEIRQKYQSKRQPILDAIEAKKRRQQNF
As to the kind of experiment: PanQinase kinase panel: MST1. To be noted: read-out: INHIBITORY EFFECT @ 1 uM: MST1. The procedure:
as §1, §2, §3

The target of assay [5] is T5, FGFR1 (Homo sapiens, UniProt P11362).
T5 construct: purchased Reaction Biology Europe GmbH
T5 sequence (P11362 22-822): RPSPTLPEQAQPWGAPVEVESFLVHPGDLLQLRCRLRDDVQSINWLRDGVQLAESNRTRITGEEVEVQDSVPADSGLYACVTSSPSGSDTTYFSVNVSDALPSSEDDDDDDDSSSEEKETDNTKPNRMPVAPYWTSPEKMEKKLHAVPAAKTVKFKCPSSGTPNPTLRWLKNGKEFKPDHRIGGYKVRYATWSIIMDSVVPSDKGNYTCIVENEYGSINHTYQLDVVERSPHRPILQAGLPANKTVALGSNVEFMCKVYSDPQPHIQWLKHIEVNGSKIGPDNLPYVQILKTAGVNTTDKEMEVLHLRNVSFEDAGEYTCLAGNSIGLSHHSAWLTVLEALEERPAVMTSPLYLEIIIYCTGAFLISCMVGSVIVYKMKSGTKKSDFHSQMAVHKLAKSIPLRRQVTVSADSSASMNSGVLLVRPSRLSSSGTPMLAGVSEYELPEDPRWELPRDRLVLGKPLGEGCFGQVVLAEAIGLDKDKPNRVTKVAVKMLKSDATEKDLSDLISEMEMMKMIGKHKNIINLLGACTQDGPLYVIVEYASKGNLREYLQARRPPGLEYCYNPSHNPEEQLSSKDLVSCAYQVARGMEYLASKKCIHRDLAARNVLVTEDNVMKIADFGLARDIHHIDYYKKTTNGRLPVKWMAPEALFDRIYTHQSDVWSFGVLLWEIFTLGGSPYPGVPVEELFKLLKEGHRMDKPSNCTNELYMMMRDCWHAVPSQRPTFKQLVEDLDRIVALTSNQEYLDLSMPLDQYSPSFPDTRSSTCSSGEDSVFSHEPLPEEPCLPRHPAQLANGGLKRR
In words: PanQinase kinase panel: FGFR1. The conditions noted are these: read-out: INHIBITORY EFFECT @ 1 uM: FGFR1. Here is the method: as §1, §2, §3

The target in assay [6] is T6, RIPK2 (Homo sapiens, UniProt O43353).
T6 construct: purchased Reaction Biology Europe GmbH
T6 sequence (O43353 whole entry): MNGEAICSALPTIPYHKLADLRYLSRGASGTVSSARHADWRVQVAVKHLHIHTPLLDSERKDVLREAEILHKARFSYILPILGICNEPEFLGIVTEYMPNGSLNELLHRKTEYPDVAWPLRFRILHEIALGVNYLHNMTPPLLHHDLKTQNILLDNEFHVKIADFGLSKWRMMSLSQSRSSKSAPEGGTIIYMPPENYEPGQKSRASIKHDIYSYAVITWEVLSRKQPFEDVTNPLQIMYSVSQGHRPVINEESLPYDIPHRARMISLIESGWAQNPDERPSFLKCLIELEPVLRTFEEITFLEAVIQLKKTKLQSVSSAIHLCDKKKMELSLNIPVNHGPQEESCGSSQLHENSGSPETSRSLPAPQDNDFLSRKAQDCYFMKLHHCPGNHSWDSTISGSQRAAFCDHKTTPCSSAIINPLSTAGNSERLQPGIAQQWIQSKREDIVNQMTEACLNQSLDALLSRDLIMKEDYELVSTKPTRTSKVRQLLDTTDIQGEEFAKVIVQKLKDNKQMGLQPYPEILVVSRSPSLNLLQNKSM
In words: PanQinase kinase panel: RIPK2. To be noted: read-out: INHIBITORY EFFECT @ 1 uM: RIPK2. Here is the method: as §1, §2, §3

T3 sequence (Q02763 23-1124): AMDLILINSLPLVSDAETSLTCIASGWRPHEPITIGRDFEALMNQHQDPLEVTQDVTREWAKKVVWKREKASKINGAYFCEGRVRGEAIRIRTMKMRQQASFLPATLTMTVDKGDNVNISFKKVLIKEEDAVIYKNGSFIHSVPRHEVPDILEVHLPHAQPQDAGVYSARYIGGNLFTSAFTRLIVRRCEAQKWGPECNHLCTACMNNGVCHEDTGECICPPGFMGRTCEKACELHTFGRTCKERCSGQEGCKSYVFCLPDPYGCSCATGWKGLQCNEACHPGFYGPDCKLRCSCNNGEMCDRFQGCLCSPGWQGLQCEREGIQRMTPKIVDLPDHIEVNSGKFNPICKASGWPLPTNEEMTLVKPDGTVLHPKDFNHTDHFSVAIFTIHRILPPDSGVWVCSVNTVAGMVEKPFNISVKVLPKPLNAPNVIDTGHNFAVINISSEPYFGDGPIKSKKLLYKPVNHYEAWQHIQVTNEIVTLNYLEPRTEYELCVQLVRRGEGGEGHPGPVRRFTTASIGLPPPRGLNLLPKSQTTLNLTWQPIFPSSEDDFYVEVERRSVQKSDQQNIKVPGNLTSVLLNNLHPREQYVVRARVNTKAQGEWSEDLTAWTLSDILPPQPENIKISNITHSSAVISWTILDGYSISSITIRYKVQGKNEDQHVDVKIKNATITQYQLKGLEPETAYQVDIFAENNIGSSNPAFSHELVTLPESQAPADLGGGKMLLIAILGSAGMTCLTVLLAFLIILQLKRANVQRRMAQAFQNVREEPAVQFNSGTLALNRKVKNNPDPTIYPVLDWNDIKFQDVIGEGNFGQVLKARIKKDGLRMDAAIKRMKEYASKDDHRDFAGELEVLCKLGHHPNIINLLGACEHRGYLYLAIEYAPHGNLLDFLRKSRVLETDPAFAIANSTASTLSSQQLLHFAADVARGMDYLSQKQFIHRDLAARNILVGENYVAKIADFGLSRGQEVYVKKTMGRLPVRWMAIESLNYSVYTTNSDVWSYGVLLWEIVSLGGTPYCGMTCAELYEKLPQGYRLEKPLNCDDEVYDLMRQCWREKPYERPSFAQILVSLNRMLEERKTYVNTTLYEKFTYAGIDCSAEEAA

Take `O=C(c1ccc(Oc2ccccc2)cc1Cl)c1c[nH]c2ncnc(N[C@@H]3CC[C@@H](CO)OC3)c12` [ARQ-531, (2-chloro-4-phenoxyphenyl) (4-(((3R,6S)-6-(hydroxymethyl)tetrahydro-2H-pyran-3-yl)amino)-7H-pyrrolo[2,3-d]pyrimidin-5-yl) methanone]: the inhibition at 1 µM in assay [1] was 70 to 89%; in assay [2] it was 70 to 89%; in assay [3], below 50%; in assay [4] it was 70 to 89%; in assay [5], 50 to 69%; in assay [6], 90 to 100%.

On to `Cc1cccnc1[C@H]1CCC[C@@H](c2ncccc2C)N1CCN1CCN(C(=O)c2ccc(-c3cc4c(-c5cccc(NC(=O)c6ccccc6)c5C)ncnc4[nH]3)cc2)CC1` [Compound I-10, N-(3-(6-(4-(4-(2-((2R,6S)-2,6-bis(3-methylpyridin-2-yl)piperidin-1-yl)ethyl)piperazine-1-carbonyl)phenyl)-7H-pyrrolo[2,3-d]pyrimidin-4-yl)-2-methylphenyl)benzamide], for which the inhibition at 1 µM in assay [1], in assay [2], in assay [3], in assay [4], in assay [5] and in assay [6] was below 50% in each case.

On to `COc1ccc(F)cc1C(=O)NCc1ccc(-c2nn([C@@H](C)C(F)(F)F)c(N)c2C(N)=O)cc1` [LOXO-305, pirtobrutinib], for which the inhibition at 1 µM in assay [1], in assay [2], in assay [3], in assay [4], in assay [5] and in assay [6] was below 50% each time.

Turning to `C=CC(=O)N1CCC([C@@H]2CCNc3c(C(N)=O)c(-c4ccc(Oc5ccccc5)cc4)nn32)CC1` [Zanubrutinib, (7S)-2-(4-phenoxyphenyl)-7-(1-prop-2-enoylpiperidin-4-yl)-4,5,6,7-tetrahydropyrazolo[1,5-a]pyrimidine-3-carboxamide], the inhibition at 1 µM was below 50% in assay [1]; 50 to 69% in assay [2]; below 50% in assay [3]; below 50% in assay [4]; below 50% in assay [5]; 50 to 69% in assay [6].
